Measured values: patent US20040077591A1, “Histone deacetylase inhibitors for the treatment of multiple sclerosis, amyotrophic lateral sclerosis and Alzheimer's Disease” (The Brigham and Women's Hospital, Inc., priority 2002, published 2004)

What was measured:
caspases 3 and 9 = experiment: Western analysis of caspases in CNS tissue of EAE mice; assay type: in vivo
Excerpt: FIGS. 7A-B—Densitometry of bands from western analysis of brain tissue proteins isolated from HDAC inhibitor-treated and vehicle-treated mice. […] Activated caspase 9 is decreased by oral sodium phenylbutyrate (SPB) and by intraperitoneal TSA. Both findings correlate with clinical improvement in these animal models.
Mechanisms of protection by HDAC inhibitors. (1) Decreased caspase activation leading to enhanced neuronal survival. […] Caspase 3 is known to be activated in rat EAE spinal cords (Ahmed et al., 2002), and correlates with retinal ganglion cell loss and optic neuritis-related disability (Meyer et al., 2001). Neuronal overexpression of the anti-caspase factor Bcl-2 ameliorates EAE (Offen et al., 2000). Caspase 3 also has the ability to modulate Bcl2 and activate upstream caspases triggered by Fas (Woo et al., 1999), an apoptotic pathway implicated in EAE (Sabelko et al., 1997). Finally, CNS activation of caspases has been implicated in the progression of Alzheimer's disease (AD) (Pompl et al., 2003). Thus, the inventor proposes that blockade of neuronal caspase activation is a mechanism by which HDAC inhibitors ameliorate neuronal death in these disorders (EAE, ALS and AD).

EAE mice spleens = experiment: DNA microarray analysis of EAE mice spleens; assay type: in vivo
Excerpt: (2) Modulation of genes involved in neuroprotection and immune regulation by TSA. a) Microarrays detect protective genes regulated by TSA in EAE mice spinal cords. The inventor pooled RNA from tissues of three animals in each group (TSA treated and vehicle-treated) for DNA microarray analysis. As shown (Table 3), intraperitoneal TSA led to the enhanced expression of mRNAs for the antioxidant glutathione peroxidase (Gpx1) and the neuroprotective insulin-like growth factor 2 (Igf2). […] Intraperitoneal TSA also led to decreased expression in EAE spinal cords of the chemokine receptor CCR6, immunoglobulin V(H)II, the vascular homeostasis-related phospholipase A2, and upregulation of the immunomodulatory factor interferon-α2 (Ifna2), the latter with known beneficial effects in MS patients.
b) Microarrays detect protective genes regulated by TSA in EAE mice spleens. The inventor had previously shown that HDAC mRNAs are elevated in immune cells after stimulation with mitogens or α-CD3 Ab (Dangond et al., 1998) and that HDAC inhibitors block proliferation (Dangond and Gullans, 1998). HDAC inhibition also downregulates pro-inflammatory molecules, including γ-IFN (Dangond and Gullans, 1998), IL-12 (Saemann et al., 2000), IL-12 receptor (Saemann et al., 2000), B7-1 (Bohmig et al., 1997) and TNF-α (Nancey et al., 2002). […] A known histone deacetylase-binding chaperone, 14-3-3 sigma, is also elevated in spleens.
Microarrays detect protective genes co-regulated by TSA in EAE mice spinal cords and spleens.

CNS tissue from EAE mice = experiment: Quantitative RT-PCR on CNS tissue of EAE mice; assay type: in vivo
Procedure: (§1) FIG. 8—Identification of gene expression changes induced by HDAC inhibitors in vivo, using reverse transcriptase polymerase chain reaction (RT-PCR). CNS and spleen tissue samples from EAE mice were used to isolate RNA. One step real time quantitative RT-PCR (QRT-PCR) was then performed in triplicate for each sample (n=3 per group of mice) with SYBR Green and an ABI Prism 7700 Sequence Detection System (PE Applied Biosystems, Foster City, Calif.).
(§2) d) Quantitative RT-PCR (QRT-PCR) on CNS and spleen tissues from TSA-treated EAE mice detects numerous genes modulated by this HDAC inhibitor. […] QRT-PCR unveiled new CNS effects of TSA (FIG. 8), including upregulation of the neuronal trait genes sodium channel Nav1.2 and dopamine β hydroxylase (Dbh), and downregulation of the pro-apoptotic factors caspase 2 (casp2) and apoptosis inducing factor (Aif). In spleen tissues, QRT-PCR confirmed elevation of Ifna7 and Adipsin and downregulation of Igκ V22 mRNAs, and unveiled downregulation by TSA of multiple inflammatory factors, such as IL-8 receptor, IL-2 receptor, IL-12, and the costimulatory molecule CD28, from pathways implicated in MS (Glabinsk and Ransohoff, 2001; Dangond, 2002).

[1] = system: spleen tissue from EAE mice; experiment: Quantitative RT-PCR on spleen tissue of EAE mice; assay type: in vivo; conditions: TSA-treated EAE mice
Procedure: as §1, §2

ras transformed cells = conditions: cited from earlier work
mouse model = conditions: cited from earlier work

Compound: CC(/C=C/C(=O)NO)=C\[C@@H](C)C(=O)c1ccc(N(C)C)cc1 [TSA, Trichostatin A]
- Activated caspase 9, densitometry of western bands, brain tissue (caspases 3 and 9; intraperitoneal TSA vs vehicle-treated mice): decreased
- activation of caspases 3 and 9 in CNS tissue (caspases 3 and 9; intraperitoneal TSA, MS (EAE) mice, western analysis): decreased activation of caspases 3 and 9
- Fold Δ Spleen, Paired box gene 4 (Pax4) (EAE mice spleens; Table 5, probe set AB010557, i.p. TSA, EAE mice spleen): −2.4 fold
- Fold Δ Spleen, Axin (EAE mice spleens; Table 5, probe set AF009011, i.p. TSA, EAE mice spleen): 2.1 fold
- Fold Δ Spleen, DNA methyltransferase (Dnmt1) (EAE mice spleens; Table 5, probe set AF036008, i.p. TSA, EAE mice spleen): −3.2 fold
- Fold Δ Spleen, Metaxin homolog (EAE mice spleens; Table 5, probe set AV108173, i.p. TSA, EAE mice spleen): −4 fold
- Fold Δ Spleen, Thromboxane A2 receptor (Tbxa2r) (EAE mice spleens; Table 5, probe set D10849, i.p. TSA, EAE mice spleen): −4.9 fold
- Fold Δ Spleen, Growth differentiation factor (Gdf9) (EAE mice spleens; Table 5, probe set L06444, i.p. TSA, EAE mice spleen): 5.4 fold
- Fold Δ Spleen, Neurofilament heavy (Nefh) (EAE mice spleens; Table 5, probe set M35131, i.p. TSA, EAE mice spleen): 2.2 fold
- Fold Δ Spleen, Snail homolog 1 (Snail1) (EAE mice spleens; Table 5, probe set M95604, i.p. TSA, EAE mice spleen): 2.9 fold
- Fold Δ Spleen, Dishevelled 2 (Dvl2) (EAE mice spleens; Table 5, probe set U24160, i.p. TSA, EAE mice spleen): −3.6 fold
- Fold Δ Spleen, Rearranged in lymphoma (Frat1) (EAE mice spleens; Table 5, probe set U58974, i.p. TSA, EAE mice spleen): 5.4 fold
- Fold Δ Spleen, Immunoglobulin H and L variable (EAE mice spleens; Table 5, probe set U62386, i.p. TSA, EAE mice spleen): −2.5 fold
- Fold Δ Spleen, Cyclin D-interacting Dmp1 (Dmtf1) (EAE mice spleens; Table 5, probe set U70017, i.p. TSA, EAE mice spleen): 5.2 fold
- Fold Δ Spleen, Neuronal PAS domain 1 (Npas1) (EAE mice spleens; Table 5, probe set U77967, i.p. TSA, EAE mice spleen): −3.5 fold
- Fold Δ Spleen, Phospholipase C-beta-1b (Picb1) (EAE mice spleens; Table 5, probe set U85714, i.p. TSA, EAE mice spleen): 3.7 fold
- Fold Δ Spleen, Glutathione peroxidase (Gpx1) (EAE mice spleens; Table 5, probe set X03920, i.p. TSA, EAE mice spleen): 2.3 fold
- Fold Δ Spleen, Immunoglobulin kappa chain (1gk-V20) (EAE mice spleens; Table 5, probe set X16678, i.p. TSA, EAE mice spleen): −2.3 fold
- Fold Δ Spleen, Paired box gene 2 (Pax2) (EAE mice spleens; Table 5, probe set X55781, i.p. TSA, EAE mice spleen): 2.1 fold
- Fold Δ Spleen, Max binding protein ROX (Mnt) (EAE mice spleens; Table 5, probe set Y07609, i.p. TSA, EAE mice spleen): −3.5 fold
- Fold Change, 14-3-3 sigma (EAE mice spleens; probe set 96704, spleen, I.P. TSA vs vehicle-treated EAE mice): 3.9 fold
- Fold Change, Parvalbumin (Pva) (EAE mice spleens; probe set 96719, spleen, I.P. TSA vs vehicle-treated EAE mice): 6.3 fold
- Fold Change, IgH variable (EAE mice spleens; probe set 96970, spleen, I.P. TSA vs vehicle-treated EAE mice): −3.9 fold
- Fold Change, Igκ-V22 (EAE mice spleens; probe set 97570, spleen, I.P. TSA vs vehicle-treated EAE mice): −4.4 fold
- Fold Change, IgA VDJH (EAE mice spleens; probe set 99420, spleen, I.P. TSA vs vehicle-treated EAE mice): −2.8 fold
- Fold Change, Adipsin (Adn) (EAE mice spleens; probe set 99671, spleen, I.P. TSA vs vehicle-treated EAE mice): 9.0 fold
- Fold Change, Galanin receptor 1 (Galr1) (EAE mice spleens; probe set 99837, spleen, I.P. TSA vs vehicle-treated EAE mice): −4.2 fold
- Fold Change, IgE H constant (EAE mice spleens; probe set 99850, spleen, I.P. TSA vs vehicle-treated EAE mice): −3.1 fold
- Fold Change, Kallikrein (Klk) (EAE mice spleens; probe set 100060, spleen, I.P. TSA vs vehicle-treated EAE mice): 2.8 fold
- Fold Change, Lactotransferrin (Ltf) (EAE mice spleens; probe set 101115, spleen, I.P. TSA vs vehicle-treated EAE mice): −8.2 fold
- Fold Change, IgG rearranged κ (EAE mice spleens; probe set 101616, spleen, I.P. TSA vs vehicle-treated EAE mice): −4.5 fold
- Fold Change, IgG variable (EAE mice spleens; probe set 101752, spleen, I.P. TSA vs vehicle-treated EAE mice): −8.2 fold
- Fold Change, V kappa and J kappa coding joint (EAE mice spleens; probe set 101826, spleen, I.P. TSA vs vehicle-treated EAE mice): −4.2 fold
- Fold Change, γ-1 Ig Constant (EAE mice spleens; probe set 101870, spleen, I.P. TSA vs vehicle-treated EAE mice): −5.0 fold
- Fold Change, Interferon alpha 7 (Ifna7) (EAE mice spleens; probe set 102149, spleen, I.P. TSA vs vehicle-treated EAE mice): 5.8 fold
- Fold Change, IgH gene DJC (EAE mice spleens; probe set 102843, spleen, I.P. TSA vs vehicle-treated EAE mice): −3.6 fold
- Fold Change, Snail homolog (EAE mice spleens; probe set 103830, spleen, I.P. TSA vs vehicle-treated EAE mice): 3.0 fold
- fold change of key genes altered, QRT-PCR (CNS tissue from EAE mice; CNS and spleen samples, vs vehicle-treated EAE animals, n=3 per group): > 1.5 fold
- Gpx1 mRNA by QRT-PCR (CNS tissue from EAE mice; CNS, TSA-treated EAE mice): elevated
- Ifna2 mRNA by QRT-PCR (CNS tissue from EAE mice; CNS, TSA-treated EAE mice): elevated
- Mug mRNA by QRT-PCR (CNS tissue from EAE mice; CNS, TSA-treated EAE mice): downregulated
- Tmpo mRNA by QRT-PCR (CNS tissue from EAE mice; CNS, TSA-treated EAE mice): downregulated
- apoptosis inducing factor (Aif) mRNA by QRT-PCR (CNS tissue from EAE mice; CNS, TSA-treated EAE mice): downregulation
- caspase 2 (casp2) mRNA by QRT-PCR (CNS tissue from EAE mice; CNS, TSA-treated EAE mice): downregulation
- dopamine β hydroxylase (Dbh) mRNA by QRT-PCR (CNS tissue from EAE mice; CNS, TSA-treated EAE mice): upregulation
- sodium channel Nav1.2 mRNA by QRT-PCR (CNS tissue from EAE mice; CNS, TSA-treated EAE mice): upregulation
- thromboxane A2 receptor (Tbxa2r) mRNA by QRT-PCR (CNS tissue from EAE mice; CNS, TSA-treated EAE mice): downregulated
- Adipsin mRNA by QRT-PCR [1]: elevation
- CD28 mRNA by QRT-PCR [1]: downregulation
- IL-2 receptor mRNA by QRT-PCR [1]: downregulation
- IL-8 receptor mRNA by QRT-PCR [1]: downregulation
- IL-12 mRNA by QRT-PCR [1]: downregulation
- Ifna7 mRNA by QRT-PCR [1]: elevation
- Igκ V22 mRNA by QRT-PCR [1]: downregulation
- hyperacetylation (ras transformed cells): induce hyperacetylation
- morphology of ras transformed cells (ras transformed cells): reversion of ras transformed cells to normal morphology
- immunosuppression (mouse model): induces immunosuppression
